Structures can show the parent of a compound that is named as a salt. Where two headings read alike, the source gives them in different places.

Format in all cases: biochemical
For experiment [1], the target named is T1, human JAK1 (a.a. 837-1142) (Homo sapiens, UniProt P23458).
T1 construct: human JAK1 (a.a. 837-1142); His tag (N); made in house; host or cells: insect cells (baculovirus)
The experiment is described as follows: In vitro JAK kinase assay (HTRF, phosphorylation of a biotinylated peptide), JAK1. The note with it: read-out: JAK1 IC50. In short, it runs like this: (§1)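 Kinase activity was measured as phosphorylation of a biotinylated peptide, with ATP at 90 μM for JAK1, 30 μM for JAK2 and 3 μM for JAK3. Reactions ran 1 hr at room temperature, were stopped with EDTA plus SA-APC and Eu-Py20, and were read by HTRF after 40 minutes of antibody binding.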
On the technique in general: In TR-FRET formats the signal depends on donor and acceptor labels being close together.

For experiment [2], the target named is T2, human JAK2 (a.a. 828-1132) (Homo sapiens, UniProt O60674).
T2 construct: JAK2 (a.a. 828-1132); His tag (N); made in house; host or cells: insect cells (baculovirus)
The experiment is described as follows: In vitro JAK kinase assay (HTRF, phosphorylation of a biotinylated peptide), JAK2. In outline: as §1

Experiment [3] concerns the target T3, human JAK3 (a.a. 781-1124) (Homo sapiens, UniProt P52333).
T3 construct: JAK3 (a.a. 781-1124); His tag (N); made in house; host or cells: insect cells (baculovirus)
Put plainly: In vitro JAK kinase assay (HTRF, phosphorylation of a biotinylated peptide), JAK3. In outline: as §1

For a further experiment, the target named is TYK2 (Homo sapiens, UniProt P29597). The experiment is described as follows: TYK2 kinase inhibition (Table A1).
Experiment [4] deals with T4, Recombinant Human Anaplastic Lymphoma Kinase (Homo sapiens, UniProt Q9UM73).
T4 construct: purchased Invitrogen, Carlsbad, Calif
Put plainly: ALK HTRF kinase assay. The note with it: for IC50: Table B1, cells without percent sign. In short, it runs like this:
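Readout was HTRF between a Eu-W1024 anti-phosphotyrosine antibody and streptavidin-APC bound to biotinylated peptide phosphorylated by recombinant human ALK. IC50 values came from a four-parameter logistic fit.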

[5] abbreviates: compound at a concentration of 500 nM or 1 mM (not specified), cells shown as percentage.
Setting [6] is: method AA1 (90 μM ATP) or AA2 (1000 μM ATP), not stated per value.
[7] abbreviates: method AA1 (30 μM ATP) or AA2 (1000 μM ATP), not stated per value.
Where [8] appears, read: method AA1 (3 μM ATP) or AA2 (1000 μM ATP), not stated per value.
Setting [9] is: compound at 500 nM or 1 mM, 90 μM ATP.

Sequence of TYK2 (P29597 whole entry): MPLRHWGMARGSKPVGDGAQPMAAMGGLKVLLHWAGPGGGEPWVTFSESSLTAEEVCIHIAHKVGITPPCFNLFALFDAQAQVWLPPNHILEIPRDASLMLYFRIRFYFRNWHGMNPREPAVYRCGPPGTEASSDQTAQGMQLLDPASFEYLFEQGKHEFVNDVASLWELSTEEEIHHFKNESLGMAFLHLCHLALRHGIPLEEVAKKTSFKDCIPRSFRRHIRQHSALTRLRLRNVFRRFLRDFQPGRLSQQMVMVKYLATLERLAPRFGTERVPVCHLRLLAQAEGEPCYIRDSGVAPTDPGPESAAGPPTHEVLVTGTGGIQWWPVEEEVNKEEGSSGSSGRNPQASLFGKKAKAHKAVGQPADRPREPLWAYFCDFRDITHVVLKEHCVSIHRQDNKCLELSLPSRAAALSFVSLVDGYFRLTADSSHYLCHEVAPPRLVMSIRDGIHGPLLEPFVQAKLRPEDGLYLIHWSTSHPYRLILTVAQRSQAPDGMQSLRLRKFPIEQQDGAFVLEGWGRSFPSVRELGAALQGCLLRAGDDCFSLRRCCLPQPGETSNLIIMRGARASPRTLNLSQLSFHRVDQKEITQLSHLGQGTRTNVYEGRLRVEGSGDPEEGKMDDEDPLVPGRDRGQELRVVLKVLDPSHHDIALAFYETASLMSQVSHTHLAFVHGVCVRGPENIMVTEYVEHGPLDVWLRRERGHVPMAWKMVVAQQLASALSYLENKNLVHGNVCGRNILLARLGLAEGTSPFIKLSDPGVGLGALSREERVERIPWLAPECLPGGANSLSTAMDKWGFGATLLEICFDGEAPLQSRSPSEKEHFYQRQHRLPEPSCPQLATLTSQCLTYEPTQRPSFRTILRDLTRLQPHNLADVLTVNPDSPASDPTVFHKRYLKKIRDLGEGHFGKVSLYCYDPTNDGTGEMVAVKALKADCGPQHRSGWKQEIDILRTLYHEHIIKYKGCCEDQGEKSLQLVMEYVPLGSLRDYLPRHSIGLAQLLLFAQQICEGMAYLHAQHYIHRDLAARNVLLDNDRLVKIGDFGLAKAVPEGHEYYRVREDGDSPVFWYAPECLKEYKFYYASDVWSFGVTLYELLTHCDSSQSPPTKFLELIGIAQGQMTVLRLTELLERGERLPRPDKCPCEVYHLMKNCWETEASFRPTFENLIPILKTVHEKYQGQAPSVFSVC
T1 sequence (P23458 849-1154): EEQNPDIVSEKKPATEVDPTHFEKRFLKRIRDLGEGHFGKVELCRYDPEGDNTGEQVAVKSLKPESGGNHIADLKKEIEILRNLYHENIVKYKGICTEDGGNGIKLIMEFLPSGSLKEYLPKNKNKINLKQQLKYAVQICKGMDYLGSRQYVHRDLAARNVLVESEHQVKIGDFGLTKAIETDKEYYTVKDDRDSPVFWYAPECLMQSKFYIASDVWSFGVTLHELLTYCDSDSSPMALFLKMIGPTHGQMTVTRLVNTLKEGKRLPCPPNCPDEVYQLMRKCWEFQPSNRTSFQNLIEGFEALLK
T3 sequence (P52333 781-1124): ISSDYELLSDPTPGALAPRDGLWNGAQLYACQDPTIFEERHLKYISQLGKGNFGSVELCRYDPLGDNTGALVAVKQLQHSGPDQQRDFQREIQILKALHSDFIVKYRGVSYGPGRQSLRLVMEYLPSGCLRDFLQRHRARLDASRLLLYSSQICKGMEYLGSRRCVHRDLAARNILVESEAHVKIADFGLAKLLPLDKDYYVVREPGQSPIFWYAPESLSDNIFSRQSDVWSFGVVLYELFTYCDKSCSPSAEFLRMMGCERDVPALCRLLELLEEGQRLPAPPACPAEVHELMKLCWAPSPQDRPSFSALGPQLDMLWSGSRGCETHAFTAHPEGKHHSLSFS
T4 sequence (Q9UM73 19-1620): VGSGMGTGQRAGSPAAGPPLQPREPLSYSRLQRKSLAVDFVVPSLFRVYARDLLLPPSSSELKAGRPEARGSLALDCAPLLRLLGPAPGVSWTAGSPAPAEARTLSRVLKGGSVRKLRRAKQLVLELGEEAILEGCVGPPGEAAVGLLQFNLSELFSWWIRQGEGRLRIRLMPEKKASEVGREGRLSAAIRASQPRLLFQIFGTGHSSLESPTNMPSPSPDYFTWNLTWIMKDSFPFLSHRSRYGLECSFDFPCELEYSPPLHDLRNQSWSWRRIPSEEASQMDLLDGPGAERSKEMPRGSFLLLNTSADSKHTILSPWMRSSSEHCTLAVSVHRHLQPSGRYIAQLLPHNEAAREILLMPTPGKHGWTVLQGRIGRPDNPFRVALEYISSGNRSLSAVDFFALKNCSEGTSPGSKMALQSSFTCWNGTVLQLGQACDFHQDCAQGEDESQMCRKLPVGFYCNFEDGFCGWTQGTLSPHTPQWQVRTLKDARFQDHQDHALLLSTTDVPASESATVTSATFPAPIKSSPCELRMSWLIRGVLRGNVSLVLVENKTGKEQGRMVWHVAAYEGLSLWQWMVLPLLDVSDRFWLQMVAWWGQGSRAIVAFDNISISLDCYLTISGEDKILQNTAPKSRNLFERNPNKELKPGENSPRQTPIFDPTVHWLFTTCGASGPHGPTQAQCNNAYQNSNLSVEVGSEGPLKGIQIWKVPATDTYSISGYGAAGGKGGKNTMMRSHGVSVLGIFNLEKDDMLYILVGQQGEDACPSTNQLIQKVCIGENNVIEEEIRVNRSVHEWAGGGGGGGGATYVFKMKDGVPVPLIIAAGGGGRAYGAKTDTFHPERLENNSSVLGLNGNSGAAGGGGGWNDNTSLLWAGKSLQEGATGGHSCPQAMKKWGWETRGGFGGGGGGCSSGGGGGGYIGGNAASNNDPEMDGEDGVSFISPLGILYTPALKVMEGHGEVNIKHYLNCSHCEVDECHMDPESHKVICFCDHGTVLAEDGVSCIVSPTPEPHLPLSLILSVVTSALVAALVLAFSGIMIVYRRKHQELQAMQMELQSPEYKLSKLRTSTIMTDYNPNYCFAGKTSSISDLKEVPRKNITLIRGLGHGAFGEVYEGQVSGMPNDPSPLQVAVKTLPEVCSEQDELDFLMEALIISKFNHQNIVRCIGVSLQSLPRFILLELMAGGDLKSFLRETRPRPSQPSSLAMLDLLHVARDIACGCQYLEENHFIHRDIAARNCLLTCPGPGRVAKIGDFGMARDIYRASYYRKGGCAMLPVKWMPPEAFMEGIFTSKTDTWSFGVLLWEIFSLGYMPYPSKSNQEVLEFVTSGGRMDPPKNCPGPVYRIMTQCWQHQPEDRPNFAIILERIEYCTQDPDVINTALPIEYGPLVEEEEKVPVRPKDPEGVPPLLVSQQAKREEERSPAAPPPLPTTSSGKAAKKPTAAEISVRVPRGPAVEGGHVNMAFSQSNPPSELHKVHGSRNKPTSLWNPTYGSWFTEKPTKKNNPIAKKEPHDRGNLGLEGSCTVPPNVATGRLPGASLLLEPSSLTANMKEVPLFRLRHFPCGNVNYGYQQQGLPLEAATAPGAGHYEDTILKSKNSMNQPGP
T2 sequence (O60674 828-1132): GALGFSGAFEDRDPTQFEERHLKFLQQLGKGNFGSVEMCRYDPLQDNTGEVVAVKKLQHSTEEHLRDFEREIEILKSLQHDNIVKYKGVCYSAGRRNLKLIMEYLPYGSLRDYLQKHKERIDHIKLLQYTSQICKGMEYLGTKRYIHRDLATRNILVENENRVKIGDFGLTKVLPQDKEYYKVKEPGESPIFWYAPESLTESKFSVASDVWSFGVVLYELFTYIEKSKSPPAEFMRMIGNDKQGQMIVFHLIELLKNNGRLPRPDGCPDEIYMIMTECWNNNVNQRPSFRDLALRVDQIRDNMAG

One may read the IC50 as the midpoint of a concentration-inhibition curve. Consider `Cc1ccc(S(=O)(=O)Nc2ccc3cc2CCc2cccc(c2)Nc2ncc(Cl)c(n2)N3)cc1` [Example B150, N-[6-Chloro-2,4,8,22-tetraazatetracyclo[14.3.1.1(3,7).1(9,13)]docosa-1(20), 3(22),4,6,9(21),10,12,16,18-nonaen-12-yl]-4-methylbenzenesulfonamide trifluoroacetate], for which the IC50 in experiment [1] (Table B1) is 0.00041 µM; in experiment [2] (Table B1), 0.00015 µM; in experiment [3] (Table B1) it was 0.0063 µM; at TYK2 (Table B1), 0.00086 µM; in experiment [4] it was 0.18 µM.

`O=C(Nc1ccc2cc1CCc1cccc(c1)Nc1ncc(Cl)c(n1)N2)N[C@H]1CCN(C(=O)c2ccccn2)C1` [Example B233, N-[6-Chloro-2,4,8,22-tetraazatetracyclo[14.3.1.1(3,7).1(9,13)]docosa-1(20),3(22),4,6,9(21),10,12,16,18-nonaen-12-yl]-N′-[(3S)-1-(pyridin-2-ylcarbonyl)pyrrolidin-3-yl]urea bis(trifluoroacetate)]: the IC50 in experiment [1] (Table B1) was determined as 0.007 µM; in experiment [2] (Table B1), 0.011 µM; in experiment [3] (Table B1), 0.102 µM; against TYK2 (Table B1), 0.024 µM. In addition, the “ALK % of inhibition at a concentration of 500 nM or 1 mM” value (“ALK % of inhibition” for short) in experiment [4] (setting [5]) is listed as 5.8%.

For `CC(C)c1ccccc1NC(=O)Nc1ccc2cc1CCc1cccc(c1)Nc1ncc(Cl)c(n1)N2` [Example B104, N-[6-Chloro-2,4,8,22-tetraazatetracyclo[14.3.1.1(3,7).1(9,13)]docosa-1(20), 3(22),4,6,9(21),10,12,16,18-nonaen-12-yl]-N′-(2-isopropylphenyl)urea trifluoroacetate], the IC50 stood at 0.0049 µM in experiment [1] (Table B1), 0.011 µM in experiment [2] (Table B1), 0.081 µM in experiment [3] (Table B1) and 0.026 µM against TYK2 (Table B1). For the same molecule, the “ALK % of inhibition” value in experiment [4] (setting [5]) came out at 55%.

In the case of `O=C(Nc1ccc(F)c(Cl)c1)c1cc2cc(c1)Nc1nc(ncc1Cl)Nc1cccc(c1)CC2` [Example B7, 6-Chloro-N-(3-chloro-4-fluorophenyl)-2,4,8,22-tetraazatetracyclo[14.3.1.1(3,7).1(9,13)]docosa-1(20),3(22),4,6,9(21),10,12,16,18-nonaene-11-carboxamide trifluoroacetate], the IC50 is > 1 µM in experiment [1] (Table B1); 0.7 µM in experiment [2] (Table B1); > 1 µM in experiment [3] (Table B1); > 1 µM on TYK2 (Table B1); > 10 µM in experiment [4].

On to `O=C(Nc1ccc2cc1CCc1cccc(c1)Nc1ncc(Cl)c(n1)N2)NC1CCNCC1` [Example B181, N-[6-Chloro-2,4,8,22-tetraazatetracyclo[14.3.1.1(3,7).1(9,13)]docosa-1(20),3(22),4,6,9(21),10,12,16,18-nonaen-12-yl]-N′-piperidin-4-ylurea dihydrochloride], for which the IC50 in experiment [1] (Table B1) was 0.07 µM; in experiment [2] (Table B1), 0.177 µM; in experiment [3] (Table B1), 0.236 µM; at TYK2 (Table B1), 0.226 µM. The “ALK % of inhibition” value in experiment [4] (setting [5]) was found to be 3.7%.

As for `CC(=O)N1CCN(CC(=O)Nc2ccc3cc2CCc2cncc(c2)Nc2ncc(Cl)c(n2)N3)CC1` [Example A127, 2-(4-Acetylpiperazin-1-yl)-N-[6-chloro-2,4,8,18,22-pentaazatetracyclo[14.3.1.1(3,7).1(9,13)]docosa-1(20),3(22),4,6,9(21),10,12,16,18-nonaen-12-yl]acetamide tris(trifluoroacetate)], the IC50 in experiment [1] (setting [6]) was found to be 0.031 µM; in experiment [2] (setting [7]), 0.064 µM; in experiment [3] (setting [8]), 0.35 µM; at TYK2, 0.059 µM. Besides, the “ALK % of inhibition” value in experiment [4] (setting [9]) is 15%.

As to `O=C(Nc1ccc2cc1CCc1cncc(c1)Nc1ncc(Cl)c(n1)N2)N1CCN(C(=O)c2ccccc2)CC1` [Example B286, 4-Benzoyl-N-[6-chloro-2,4,8,18,22-pentaazatetracyclo[14.3.1.1(3,7).1(9,13)]docosa-1(20),3(22),4,6,9(21),10,12,16,18-nonaen-12-yl]piperazine-1-carboxamide bis(trifluoroacetate)], the IC50 is 0.043 µM in experiment [1] (Table B1), > 0.2 µM in experiment [2] (Table B1), > 0.2 µM in experiment [3] (Table B1) and > 0.2 µM at TYK2 (Table B1). The “ALK % of inhibition” value in experiment [4] (setting [5]) was found to be 51%.

As for `O=C(Nc1ccc2cc1CCc1cccc(c1)Nc1ncc(Cl)c(n1)N2)c1cccc(C(F)(F)F)c1` [Example B76, N-[6-Chloro-2,4,8,22-tetraazatetracyclo[14.3.1.1(3,7).1(9,13)]docosa-1(20), 3(22),4,6,9(21),10,12,16,18-nonaen-12-yl]-3-(trifluoromethyl)benzamide trifluoroacetate], the IC50 in experiment [1] (Table B1) came out at 0.033 µM; in experiment [2] (Table B1) it was 0.014 µM; in experiment [3] (Table B1) it was 0.061 µM; against TYK2 (Table B1) it was 0.025 µM. Further, the “ALK % of inhibition” value in experiment [4] (setting [5]) is listed as 28%.

Turning to `O=C(Nc1cccc(F)c1)Nc1cc2cc(c1)Nc1nc(ncc1Cl)Nc1cccc(c1)CC2` [Example B214, N-[6-Chloro-2,4,8,22-tetraazatetracyclo[14.3.1.1(3,7).1(9,13)]docosa-1(20),3(22),4,6,9(21),10,12,16,18-nonaen-11-yl]-N′-(3-fluorophenyl)urea trifluoroacetate], the IC50 was > 1 µM in experiment [1] (Table B1), 0.281 µM in experiment [2] (Table B1), 0.231 µM in experiment [3] (Table B1) and > 1 µM at TYK2 (Table B1). Further, the “ALK % of inhibition” value in experiment [4] (setting [5]) was determined as 39%.

For the molecule `COc1ccc(S(=O)(=O)Nc2ccc3cc2CCc2cccc(c2)Nc2ncc(Cl)c(n2)N3)cc1` [Example B156, N-[6-Chloro-2,4,8,22-tetraazatetracyclo[14.3.1.1(3,7).1(9,13)]docosa-1(20), 3(22),4,6,9(21),10,12,16,18-nonaen-12-yl]-4-methoxybenzenesulfonamide trifluoroacetate], the IC50 in experiment [1] (Table B1) worked out at 0.00075 µM; in experiment [2] (Table B1) it was 0.0015 µM; in experiment [3] (Table B1) it was 0.017 µM; against TYK2 (Table B1), 0.0027 µM. Also, the “ALK % of inhibition” value in experiment [4] (setting [5]) turned out to be 28%.

`Cc1noc(C)c1C(=O)N1CCC(C(=O)Nc2ccc3cc2CCc2cccc(c2)Nc2ncc(Cl)c(n2)N3)CC1` [Example A34, N-[6-Chloro-2,4,8,22-tetraazatetracyclo[14.3.1.1(3,7).1(9,13)]docosa-1(20), 3(22),4,6,9(21),10,12,16,18-nonaen-12-yl]-1-[(3,5-dimethylisoxazol-4-yl)carbonyl]piperidine-4-carboxamide trifluoroacetate]: the IC50 in experiment [1] (setting [6]) is 0.446 µM; in experiment [2] (setting [7]), 0.22 µM; in experiment [3] (setting [8]), > 1 µM; against TYK2, 0.343 µM. Further, in experiment [4] (setting [9]), the “ALK % of inhibition” value is reported as 5%.

On to `O=C(NCCN1CCCC1=O)Nc1ccc2cc1CCc1cccc(c1)Nc1ncc(Cl)c(n1)N2` [Example B257, N-[6-Chloro-2,4,8,22-tetraazatetracyclo[14.3.1.1(3,7).1(9,13)]docosa-1(20),3(22),4,6,9(21),10,12,16,18-nonaen-12-yl]-N′-[2-(2-oxopyrrolidin-1-yl)ethyl]urea trifluoroacetate], for which the IC50 in experiment [1] (Table B1) was found to be 0.0073 µM; in experiment [2] (Table B1) it was 0.0095 µM; in experiment [3] (Table B1), 0.064 µM; on TYK2 (Table B1), 0.018 µM. Moreover, the “ALK % of inhibition” value in experiment [4] (setting [5]) was 14%.

The record behind these values is US8871753B2, “Macrocyclic compounds and their use as kinase inhibitors” (Incyte Corporation, priority 2008, dated 2014).
